SMILES strings stand for the structures.

The term EC50 denotes the concentration giving half of the maximal effect.

The target in this assay is human activated kallikrein enzyme (Homo sapiens, UniProt P03952). Briefly: Plasma kallikrein inhibition, fluorogenic PFR-AMC substrate, 500 pM activated kallikrein format. In kind it is biochemical. As to conditions: 500 pM activated kallikrein, 300 uM PFR-AMC, 30 min preincubation, 10 min reaction; read-out: Primary Dose Response Assay: Average EC50. A digest of the protocol: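 Fluorogenic readout (ex 380 / em 460 nm) after 10 min room-temperature reaction with 300 uM Pro-Phe-Arg-AMC substrate, following 30 min preincubation of inhibitors with 500 pM enzyme. Buffer: Tris pH 7.5, EDTA, NaCl, PEG-400, Triton X-100. Values given as EC50 ranges.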
Chain of human activated kallikrein enzyme (P03952 391-638 limits assumed): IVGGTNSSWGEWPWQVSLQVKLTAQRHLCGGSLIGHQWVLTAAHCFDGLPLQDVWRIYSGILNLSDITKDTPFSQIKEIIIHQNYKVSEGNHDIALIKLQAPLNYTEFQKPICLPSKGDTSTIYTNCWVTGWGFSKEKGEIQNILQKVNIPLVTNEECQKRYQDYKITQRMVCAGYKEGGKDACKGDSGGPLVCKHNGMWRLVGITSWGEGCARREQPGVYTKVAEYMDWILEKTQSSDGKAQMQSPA
Chain of human activated kallikrein enzyme (P03952 20-390 partner limits assumed): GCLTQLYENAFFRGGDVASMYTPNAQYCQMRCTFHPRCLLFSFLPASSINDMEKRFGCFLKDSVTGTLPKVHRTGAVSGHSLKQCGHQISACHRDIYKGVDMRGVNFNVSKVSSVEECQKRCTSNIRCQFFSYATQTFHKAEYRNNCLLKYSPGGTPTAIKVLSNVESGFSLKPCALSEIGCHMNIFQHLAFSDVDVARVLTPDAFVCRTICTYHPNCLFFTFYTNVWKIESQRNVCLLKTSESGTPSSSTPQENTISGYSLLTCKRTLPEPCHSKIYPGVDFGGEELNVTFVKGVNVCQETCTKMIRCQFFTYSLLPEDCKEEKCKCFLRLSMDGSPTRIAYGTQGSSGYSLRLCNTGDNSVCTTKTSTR
Consider `Cc1ccnc([C@H]2C[C@@H]2C(=O)Nc2cc(NC(C)c3cn4cc(C5CC5)cc(N5CC(=O)N(CCOCc6ccccc6)C5=O)c4n3)nc(C3CC3)n2)n1` (stereo partly drawn) [Example 409, (1S,2S)-N-(6-((1-(8-(3-(2-(benzyloxy)ethyl)-2,4-dioxoimidazolidin-1-yl)-6-cyclopropylimidazo[1,2-a]pyridin-2-yl)ethyl)amino)-2-cyclopropylpyrimidin-4-yl)-2-(4-methylpyrimidin-2-yl)cyclopropane-1-carboxamide], for which the EC50 is 10 to 100 nM.

Take `Cc1ccnc([C@H]2C[C@@H]2C(=O)Nc2cc(N[C@@H](C)c3cn4cc(C(F)F)cc(N5CC(=O)N(C)C5=O)c4n3)ncn2)n1` [Example 416, (1S,2S)-N-(6-(((S)-1-(6-(difluoromethyl)-8-(3-methyl-2,4-dioxoimidazolidin-1-yl)imidazo[1,2-a]pyridin-2-yl)ethyl)amino)pyrimidin-4-yl)-2-(4-methylpyrimidin-2-yl)cyclopropane-1-carboxamide]: the EC50 was in the range of 10 to 100 nM.

In the case of `Cc1ccnc([C@H]2C[C@@H]2C(=O)Nc2cc(N[C@H](C)c3cn4cc(C(F)F)cc(N5CC(=O)N(C)C5=O)c4n3)ncn2)n1` [Example 417, (1S,2S)-N-(6-(((R)-1-(6-(difluoromethyl)-8-(3-methyl-2,4-dioxoimidazolidin-1-yl)imidazo[1,2-a]pyridin-2-yl)ethyl)amino)pyrimidin-4-yl)-2-(4-methylpyrimidin-2-yl)cyclopropane-1-carboxamide], the EC50 is under 1 nM.

Take `CCc1cc(N2CC(=O)N(C)C2=O)c2nc([C@@H](C)Nc3cc(NC(=O)[C@H]4C[C@@H]4c4nccc(C)n4)ncn3)cn2c1` [Example 419, (1S,2S)-N-(6-(((R)-1-(6-ethyl-8-(3-methyl-2,4-dioxoimidazolidin-1-yl)imidazo[1,2-a]pyridin-2-yl)ethyl)amino)pyrimidin-4-yl)-2-(4-methylpyrimidin-2-yl)cyclopropane-1-carboxamide]: the EC50 is under 1 nM.

For `Cc1ccnc([C@H]2C[C@@H]2C(=O)Nc2cc(N[C@H](C)c3cn4cc(C5CC5)cc(N5C(=O)N(C)C(=O)C56COC6)c4n3)ncn2)n1` [Example 420, (1S,2S)-N-(6-(((R)-1-(6-cyclopropyl-8-(7-methyl-6,8-dioxo-2-oxa-5,7-diazaspiro[3.4]octan-5-yl)imidazo[1,2-a]pyridin-2-yl)ethyl)amino)pyrimidin-4-yl)-2-(4-methylpyrimidin-2-yl)cyclopropane-1-carboxamide], the concentration for a half-maximal effect (EC50) was under 1 nM.

`Cc1ccnc([C@H]2C[C@@H]2C(=O)Nc2cc(N[C@H](C)c3cn4cc(Cl)cc(N5CC(=O)N(C)C5=O)c4n3)ncn2)n1` [Example 421, (1S,2S)-N-(6-(((R)-1-(6-chloro-8-(3-methyl-2,4-dioxoimidazolidin-1-yl)imidazo[1,2-a]pyridin-2-yl)ethyl)amino)pyrimidin-4-yl)-2-(4-methylpyrimidin-2-yl)cyclopropane-1-carboxamide]: the EC50 is under 1 nM.

Regarding `Cc1ccnc([C@H]2C[C@@H]2C(=O)Nc2cc(N[C@H](C)c3cn4cc(C5CC5)cc(N=S(C)(C)=O)c4n3)ncn2)n1` [Example 422, (1S,2S)-N-(6-(((R)-1-(6-cyclopropyl-8-((dimethyl(oxo)-16-sulfaneylidene)amino)imidazo[1,2-a]pyridin-2-yl)ethyl)amino)pyrimidin-4-yl)-2-(4-methylpyrimidin-2-yl)cyclopropane-1-carboxamide], the EC50 is under 1 nM.

With `CCC(=O)O[C@H]1C[C@H](c2cn3cc(C4CC4)cc(N4CC(=O)N(C)C4=O)c3n2)N(c2cc(NC(=O)[C@H]3C[C@@H]3c3nccc(C)n3)ncn2)C1` [Example 425, (3S,5R)-5-(6-cyclopropyl-8-(3-methyl-2,4-dioxoimidazolidin-1-yl)imidazo[1,2-a]pyridin-2-yl)-1-(6-((1S,2S)-2-(4-methylpyrimidin-2-yl)cyclopropane-1-carboxamido)pyrimidin-4-yl)pyrrolidin-3-yl propionate], the EC50 is 10 to 100 nM.

For the compound `Cc1ccnc([C@H]2C[C@@H]2C(=O)Nc2cc(N3CC(C)(O)C[C@@H]3c3cn4cc(C5CC5)ccc4n3)ncn2)n1` (stereo partly drawn) [Example 426, (1S,2S)-N-(6-((2R)-2-(6-cyclopropylimidazo[1,2-a]pyridin-2-yl)-4-hydroxy-4-methylpyrrolidin-1-yl)pyrimidin-4-yl)-2-(4-methylpyrimidin-2-yl)cyclopropane-1-carboxamide], the EC50 lay in the range of 10 to 100 nM.

Consider `Cc1ccnc([C@H]2C[C@@H]2C(=O)Nc2cc(N[C@@H](C)c3cn4cc(C(F)F)cc(N5CC(=O)N(C)C5=O)c4n3)nc(C)n2)n1` [Example 427, (1S,2S)-N-(6-(((S)-1-(6-(difluoromethyl)-8-(3-methyl-2,4-dioxoimidazolidin-1-yl)imidazo[1,2-a]pyridin-2-yl)ethyl)amino)-2-methylpyrimidin-4-yl)-2-(4-methylpyrimidin-2-yl)cyclopropane-1-carboxamide], for which the 50% effective concentration (EC50) lay in the range of 10 to 100 nM.

With `Cc1ccnc([C@H]2C[C@@H]2C(=O)Nc2cc(N[C@H](C)c3cn4cc(C(F)F)cc(N5CC(=O)N(C)C5=O)c4n3)nc(C)n2)n1` [Example 428, (1S,2S)-N-(6-(((R)-1-(6-(difluoromethyl)-8-(3-methyl-2,4-dioxoimidazolidin-1-yl)imidazo[1,2-a]pyridin-2-yl)ethyl)amino)-2-methylpyrimidin-4-yl)-2-(4-methylpyrimidin-2-yl)cyclopropane-1-carboxamide], the EC50 was under 1 nM.

Take `CCc1cc(N2CC(=O)N(C)C2=O)c2nc([C@@H](C)Nc3cc(NC(=O)[C@H]4C[C@@H]4c4nccc(C)n4)nc(C)n3)cn2c1` [Example 429, (1S,2S)-N-(6-(((R)-1-(6-ethyl-8-(3-methyl-2,4-dioxoimidazolidin-1-yl)imidazo[1,2-a]pyridin-2-yl)ethyl)amino)-2-methylpyrimidin-4-yl)-2-(4-methylpyrimidin-2-yl)cyclopropane-1-carboxamide]: the EC50 was under 1 nM.

As for `Cc1cc(N2CC3CC3C2=O)c2nc([C@@H](C)Nc3cc(NC(=O)[C@H]4C[C@@H]4c4nccc(C)n4)nc(C)n3)cn2c1` (stereo partly drawn) [Example 430, (1S,2S)-N-(2-methyl-6-(((1R)-1-(6-methyl-8-(2-oxo-3-azabicyclo[3.1.0]hexan-3-yl)imidazo[1,2-a]pyridin-2-yl)ethyl)amino)pyrimidin-4-yl)-2-(4-methylpyrimidin-2-yl)cyclopropane-1-carboxamide], the EC50 fell in the range of 1 to 10 nM.

For `Cc1ccnc([C@H]2C[C@@H]2C(=O)Nc2cc(N[C@H](C)c3cn4cc(C5CC5)cc(N=S(C)(C)=O)c4n3)nc(C)n2)n1` [Example 431, (1S,2S)-N-(6-(((R)-1-(6-cyclopropyl-8-((dimethyl(oxo)-16-sulfaneylidene)amino)imidazo[1,2-a]pyridin-2-yl)ethyl)amino)-2-methylpyrimidin-4-yl)-2-(4-methylpyrimidin-2-yl)cyclopropane-1-carboxamide], the EC50 is under 1 nM.

With `Cc1ccnc([C@H]2C[C@@H]2C(=O)Nc2cc(N[C@H](C)c3cn4cc(C5CC5)cc(N5C(=O)N(C)C(=O)C5(C)C)c4n3)nc(C)n2)n1` [Example 432, (1S,2S)-N-(6-(((R)-1-(6-cyclopropyl-8-(3,5,5-trimethyl-2,4-dioxoimidazolidin-1-yl)imidazo[1,2-a]pyridin-2-yl)ethyl)amino)-2-methylpyrimidin-4-yl)-2-(4-methylpyrimidin-2-yl)cyclopropane-1-carboxamide], the concentration for a half-maximal effect (EC50) was under 1 nM.

For `Cc1ccnc([C@H]2C[C@@H]2C(=O)Nc2cc(N[C@H](C)c3cn4cc(C5CC5)cc(N5CC6CC6C5=O)c4n3)nc(C)n2)n1` (stereo partly drawn) [Example 433, (1S,2S)-N-(6-(((1R)-1-(6-cyclopropyl-8-(2-oxo-3-azabicyclo[3.1.0]hexan-3-yl)imidazo[1,2-a]pyridin-2-yl)ethyl)amino)-2-methylpyrimidin-4-yl)-2-(4-methylpyrimidin-2-yl)cyclopropane-1-carboxamide], the EC50 was under 1 nM.

With `Cc1ccnc([C@H]2C[C@@H]2C(=O)Nc2cc(N[C@H](C)c3cn4cc(C5CC5)cc(N5CC6(COC6)N(C)C5=O)c4n3)nc(C)n2)n1` [Example 435, (1S,2S)-N-(6-(((R)-1-(6-cyclopropyl-8-(5-methyl-6-oxo-2-oxa-5,7-diazaspiro[3.4]octan-7-yl)imidazo[1,2-a]pyridin-2-yl)ethyl)amino)-2-methylpyrimidin-4-yl)-2-(4-methylpyrimidin-2-yl)cyclopropane-1-carboxamide], the EC50 was under 1 nM.

Consider `Cc1ccnc([C@H]2C[C@@H]2C(=O)Nc2cc(N[C@H](C)c3cn4cc(C5(F)CC5)cc(N5CC(=O)N(C)C5=O)c4n3)nc(C)n2)n1` [Example 436, (1S,2S)-N-(6-(((R)-1-(6-(1-fluorocyclopropyl)-8-(3-methyl-2,4-dioxoimidazolidin-1-yl)imidazo[1,2-a]pyridin-2-yl)ethyl)amino)-2-methylpyrimidin-4-yl)-2-(4-methylpyrimidin-2-yl)cyclopropane-1-carboxamide], for which the EC50 is under 1 nM.

With `COCc1nc(NC(=O)[C@H]2C[C@@H]2c2nccc(C)n2)cc(N[C@H](C)c2cn3cc(C)cc(N4CC(=O)N(C)C4=O)c3n2)n1` [Example 438, (1S,2S)-N-(2-(methoxymethyl)-6-(((R)-1-(6-methyl-8-(3-methyl-2,4-dioxoimidazolidin-1-yl)imidazo[1,2-a]pyridin-2-yl)ethyl)amino)pyrimidin-4-yl)-2-(4-methylpyrimidin-2-yl)cyclopropane-1-carboxamide], the EC50 was under 1 nM.

Turning to `COCc1nc(NC(=O)[C@H]2C[C@@H]2c2nccc(C)n2)cc(N[C@H](C)c2cn3cc(C4(F)CC4)cc(N4CC(=O)N(C)C4=O)c3n2)n1` [Example 439, (1S,2S)-N-(6-(((R)-1-(6-(1-fluorocyclopropyl)-8-(3-methyl-2,4-dioxoimidazolidin-1-yl)imidazo[1,2-a]pyridin-2-yl)ethyl)amino)-2-(methoxymethyl)pyrimidin-4-yl)-2-(4-methylpyrimidin-2-yl)cyclopropane-1-carboxamide], the EC50 was under 1 nM.

The record behind these values is patent publication US20240228488A1 (TAKEDA PHARMACEUTICAL COMPANY LIMITED, priority 2021, published 2024).
